Legend:
Assay type in all cases: in vivo
GUS [1] = assay: Histochemical transient GUS expression in particle bombarded sorghum stem tissue; conditions: versus Ubiquitin 1 promoter
Excerpt: (§1) FIG. 14 is a photomicrograph of particle bombarded maize and sorghum stem tissues showing histochemical localization of transient GUS expression driven by the stem-regulated OMT promoter or the constitutive maize ubiquitinl promoter.

GUS [2] = assay: Histochemical transient GUS expression in particle bombarded maize stem tissue; conditions: versus Ubiquitin 1 promoter
Excerpt: as §1

OMT = assay: cDNA microarray of OMT expression in sugarcane plants sprayed with defense-inducing agents; conditions: treated (Cy5) v. untreated control (Cy3), normalized
Protocol: The 251 cDNA clones used for microarray analysis in Example 1 were further used to assess the effects of defense-inducing agents on the expression of the stem-specific genes.
Total RNA was extracted from wild type sugarcane plants (3 months-old) that were sprayed with the defense-inducing agents jasmonic acid (JA) (25µM in 0.05.percent.Tween 20), methyl-jasmonate (MeJA) (200µM in 0.1.percent.ethanol and 0.05.percent.Tween 20) or salicylic acid (SA) (5 mM in 0.05.percent.Tween 20) for two time periods, 24 and 48 hours. The microarray including 251 cDNAs was probed with fluorescently labeled cDNAs synthesized from 1µg of total amplified RNA. One cDNA probe (e.g. RNA from plant treated with a defense-inducing agent) is labeled with one dye (Cy5), and the second (e.g. RNA from untreated control plant) with another dye (Cy3)
The normalized ratio of Cy5 v.

Row | Compound | Transient expression of GUS in stem tissue (GUS [1]) | Transient expression of GUS in stem tissue (GUS [2]) | Cy5/Cy3 Ratios (Upregulation) for OMT (OMT; 48 hours after spraying) | Cy5/Cy3 Ratios (Upregulation) for OMT (OMT; 24 hours after spraying)
1 | OMT promoter: sugarcane o-methyl transferase gene promoter, SEQ ID NO:1, directing stem-regulated, defense-inducible expression | comparable to that obtained with the Ubiquitin 1 promoter | comparable to that obtained with the Ubiquitin 1 promoter | – | –
2 | O=C(O)c1ccccc1O [SA, salicylic acid] | – | – | 2.00 | –
3 | CC/C=C\CC1C(=O)CCC1CC(=O)OC (stereo not shown) [MeJA, methyl-jasmonate] | – | – | 0.97 | 0.70
4 | CC/C=C\C[C@H]1C(=O)CC[C@@H]1CC(=O)O [JA, jasmonic acid] | – | – | 2.00 | 0.99
